Measured values as given in patent US20220081395A1, “DISULPHIDE COMPOUNDS” (NEEM BIOTECH LIMITED, priority 2019, published 2022).

Experiments:
Type in all cases: cell-based
[1] = tested on: Pseudomonas aeruginosa; experiment: Minimum Biofilm Inhibition Concentration (MBIC) assay, biofilm formation, crystal violet; details: IC50 of compound as % of IC50 of ajoene in the same experiment; <100% more effective than ajoene
Experimental: (§1) Compounds were assayed for their ability to inhibit S. aureus or P. aeruginosa biofilm formation as follows.
(§2) All compounds were prepared as a 30 mM stock in DMSO and diluted in tryptic soy broth (TSB) to 48 μM (S. aureus) or 144 μM (P. aeruginosa). The compounds were further serially diluted two-fold from 48 μM to 0.75 μM (S. aureus) or 144 μM to 2.3 μM (P. aeruginosa) and added to a 96-well plate at 100 μl per well. Overnight cultures of bacteria were diluted to an OD600=0.07 in fresh TSB and 100 μl of the diluted bacterial culture was added to the compound containing wells. The bacteria were incubated in the presence of the compounds overnight at 37° C. After incubation, the planktonic bacteria were removed by three washes using H2O and the remaining biofilm was stained using crystal violet and quantified photometrically at A570. Absorbances corresponding to biofilm mass were plotted versus compound concentration and IC50 values were calculated. Reference: O'Toole G A, Microtiter Dish Biofilm Formation Assay J. Vis. Exp (2011).
(§3) MBIC assays of the compounds are carried out alongside ajoene for reference and standardization. The IC50 of ajoene against S. aureus and P.aeruginosa is well-defined and reproducible allowing ajoene to serve as an effective control for the experiment. As such, the IC50 calculated for the tested compounds are compared to the IC50 of ajoene in every experiment and are therefore represented as % of ajoene.

[2] = tested on: Staphylococcus aureus; experiment: as above; details: IC50 of compound as % of IC50 of ajoene in the same experiment; <100% more effective than ajoene
Experimental: as §1, §2, §3

[3] = tested on: P. aeruginosa biofilms; experiment: Inhibition of respiration/viability of established biofilms grown in artificial sputum medium (TTZ viability assay), with tobramycin; details: established 24 h biofilms in ASM, compound 5 hours, then 10 μg/ml tobramycin 16 hours; FIG. 3
Experimental: Compound B was tested for its efficacy to inhibit P. aeruginosa biofilms in artificial sputum medium (ASM) as follows. Overnight cultures of P. aeruginosa were re-seeded to an OD595=0.07 and further diluted 1:100 in ASM and grown for 24 hours at 37° C. to allow for biofilm formation. Compound B was prepared as 30 mM stock in 100% DMSO and established biofilms were treated with the compound at increasing concentrations or left untreated for 5 hours at 37° C. All samples were then treated with 10 μg/ml tobramycin for 16 hours at 37° C. The artificial sputum was liquified using sputasol. The respiratory potential of the biofilms was quantified using a tetrazolium chloride (2,3,5-triphenyl tetrazolium chloride (TTZ)) viability assay.

[4] = tested on: P. aeruginosa; experiment: Bacterial Exudate Scratch Test (BEST), HaCaT monolayer exposed to P. aeruginosa exudate
Experimental: (§4) Bacterial cultures (S. aureus and P. aeruginosa) were grown prophylactically with test compounds for 24 hours and exudates were collected.
(§5) Microorganisms were prepared by growing in tryptone soy broth (TSB) at 37° C., 150 rpm for 16 hours.
(§6) The exudates were obtained by first placing in a 24-well plate, 1 mL of each compound treated media and vehicle control media in triplicate. 1 mL of untreated TSB was then added to 3 wells for an untreated control and 2 mL TSB was added to 3 wells for sterility control. Except for the sterility control wells, 1 mL of bacterial suspension was added to each well and mixed well. The plate was then incubated in a humidified incubator at 37° C. for 24 hours at 75 rpm. Following the appropriate incubation time, the entire contents of the well were removed and transferred into a sterile centrifuge tube. The tube was then centrifuged at 10,000 rpm for 10 minutes at 4° C. to pellet the biomass. The supernatant was filtered using a Luer Lock […] filter into another sterile tube. The exudate was aliquoted into 500 μl aliquots in 0.5 mL PCR tubes. […]
(§7) The plates were incubated for 20 hours at 37° C., 5% CO2 and images were taken at the time points as required. Scratch ‘size’ was analysed using ImageJ software.
(§8) The rate of cellular proliferation of the HaCaT cells is calculated at 20 hours as a percentage of the initial scratch size at 0 hours.

[5] = tested on: S. aureus; experiment: Bacterial Exudate Scratch Test (BEST), HaCaT monolayer exposed to S. aureus exudate
Experimental: as §4, §5, §6, §7, §8

Row | P. aeruginosa MBIC: % of Ajoene positive control IC50 [1] | S. aureus MBIC: % of Ajoene positive control IC50 [2] | SMILES | other results
1 | 35 % of Ajoene | 69 % of Ajoene | O=S(=O)(Cc1ccccc1)Cc1cccc(SSCc2ccc(F)cc2)c1 | –
2 | 20 % of Ajoene | 43 % of Ajoene | COc1ccc(CSSc2cccc(C[S+]([O-])Cc3ccccc3)c2)cc1 (centres unmarked) | –
3 | 32 % of Ajoene | 34 % of Ajoene | [O-][S+](Cc1ccccc1)Cc1cccc(SSCc2ccc(C(F)(F)F)cc2)c1 (centres unmarked) | –
4 | 21 % of Ajoene | 62 % of Ajoene | [O-][S+](Cc1ccccc1)Cc1cccc(SSCc2ccccc2)c1 (centres unmarked) | –
5 | 94 % of Ajoene | 11 % of Ajoene | CCC(C)CSSc1cccc(CS(=O)(=O)Cc2ccccc2)c1 (centres unmarked) | –

The next lines start with the compound.

Row | SMILES | P. aeruginosa MBIC: % of Ajoene positive control IC50 [1] | S. aureus MBIC: % of Ajoene positive control IC50 [2] | other results
6 | COc1ccc(CSSc2ccccc2C[S+]([O-])Cc2ccccc2)cc1 (centres unmarked) | 58 % of Ajoene | 4 % of Ajoene | –
7 | C=CCSSc1ccccc1C[S+]([O-])Cc1ccccc1 (centres unmarked) | 76 % of Ajoene | 89 % of Ajoene | –
8 | [O-][S+](Cc1ccccc1)Cc1ccccc1SSCc1ccccc1 (centres unmarked) | 39.9 % of Ajoene | 89 % of Ajoene | –
9 | CCC(C)CSSc1cccc(C[S+]([O-])Cc2ccccc2)c1 (centres unmarked) | 15 % of Ajoene | 22.5 % of Ajoene | –
10 | CC(C)CSSc1cccc(C[S+]([O-])Cc2ccccc2)c1 (centres unmarked) | 32 % of Ajoene | 90 % of Ajoene | –
11 | C=CCSSc1cccc(CS(=O)(=O)Cc2ccco2)c1 | 100 % of Ajoene | 22 % of Ajoene | –
12 | CSSc1cccc(CS(=O)(=O)Cc2ccccc2)c1 [Compound B, 1-(methyldisulfanyl)-3-(phenylmethanesulfonylmethyl)benzene] | – | – | effect on efficacy of tobramycin to inhibit biofilm respiration/viability [3]: enhances the efficacy of tobramycin
13 | C=CCSSc1cccc(CS(=O)(=O)Cc2ccccc2)c1 [drawing 76] | 82 % of Ajoene | 5 % of Ajoene | –
14 | C=CCSSc1cccc(CS(=O)(=O)Cc2ccccc2)c1 [drawing 83] | – | – | scratch area at 20 hours (percentage of initial scratch size at 0 hours) ([4]; HaCaT exposed to P. aeruginosa exudate pre-treated with test compound (250 μM), vehicle 109%, no exudate 9%): 64%; effect on inhibition of scratch closure in HaCaT cells ([4]; prophylactic (pre-biofilm) treatment of P. aeruginosa with 250 μM test compound, versus vehicle pre-treatment, FIG. 5): reduces the inhibition of scratch closure; scratch area at 20 hours ([5]; HaCaT exposed to S. aureus exudate pre-treated with test compound (125 pM), vehicle 66% remaining): almost complete closure of the scratch area; effect on inhibition of scratch closure in HaCaT cells ([5]; prophylactic (pre-biofilm) treatment of S. aureus with 125 pM test compound, versus vehicle pre-treatment, FIG. 4): completely rescues the inhibition of scratch closure
